Laboratory results: patent US20240083861A1, “HSD17B13 INHIBITORS AND USES THEREOF” (FL2022-001, Inc., priority 2020, published 2024)

What follows are compounds tested against T1, Recombinant human HSD17B13 enzyme (Homo sapiens, UniProt Q7Z5P4) (assay: HSD17b13 NAD(P)H-Glo biochemical assay). Conditions: 50 uM estradiol, 1 mM NAD+, NAD(P)H-Glo luminescence; read-out: HSD17β13 IC50.
T1 sequence (Q7Z5P4 20-300): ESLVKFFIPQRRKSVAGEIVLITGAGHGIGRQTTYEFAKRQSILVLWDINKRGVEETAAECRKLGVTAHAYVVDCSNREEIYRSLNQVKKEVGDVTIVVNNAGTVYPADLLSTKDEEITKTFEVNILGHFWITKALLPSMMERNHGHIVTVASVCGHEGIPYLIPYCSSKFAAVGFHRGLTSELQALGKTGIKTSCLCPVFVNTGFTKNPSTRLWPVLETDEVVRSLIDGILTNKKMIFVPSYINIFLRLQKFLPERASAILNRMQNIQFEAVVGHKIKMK
Method: Example B-1: HSD17b13 NAD(P)H-Glo Biochemical Assay
Recombinant human HSD17B13 enzyme. Substrate: estradiol (Sigma β-Estradiol E8875), 100 mM in DMSO. Cofactor: NAD+ Grade I free acid (Sigma 10127965001), 20 mM in H2O. Assay buffer final concentration: 20 mM Tris pH7.4 with 0.002% Tween-20 and 0.02% BSA. Assay performed in 384 well solid bottom plate (Corning 3570). Enzymatic activity detected by NAD(P)H-Glo™ Detection System (Promega G9062).
Inhibitor compounds were serially diluted in DMSO and then further diluted in assay buffer to a 10× concentration consisting of 1% DMSO.
HSD17b13 enzyme was diluted in 1× assay buffer to the desired enzyme concentration based on the specific activity of the enzyme lot. 20 uL of diluted enzyme was added to each well along with 2.5 uL of 10× inhibitor solution. Assay plate was incubated at RT for 20 minutes, and then 2.5 uL of a 10× substrate/cofactor mix was added to each well for a final concentration of 50 uM estradiol and 1 mM NAD+. Assay plate was incubated at 37° C. for 3 hours. NAD(P)H-Glo™ Detection System reagents were prepared according to manufacturer's specifications, and 25 uL was added to each well. After incubating for 1 hour at RT, luminescence was measured.

First: O=C(NC1CCC1)c1ccc2oc(-c3cc(O)cc(C(F)(F)F)c3)nc2c1 [Compound 2, N-Cyclobutyl-2-(3-hydroxy-5-(trifluoromethyl)phenyl)benzo[d]oxazole-5-carboxamide]
Second: O=C(NC12CC(C1)C2)c1ccc2oc(-c3cc(O)cc(C(F)(F)F)c3)nc2c1 [Compound 2.01, N-(Bicyclo[1.1.1]pentan-1-yl)-2-(3-hydroxy-5-(trifluoromethyl)phenyl)benzo[d]oxa-zole-5-carboxamide]
The IC50 of the first is higher: 100 to 1000 nM for the first, under 100 nM for the second.

`Oc1cc(-c2nc3cc(-c4ccc(O)c(Cl)c4)ccc3o2)ccc1F` [Compound 3, 2-Chloro-4-(2-(4-fluoro-3-hydroxyphenyl)benzo[d]oxazol-5-yl)phenol] and `Oc1cc(-c2nc3ccc(-c4ccc(O)c(Cl)c4)cc3o2)ccc1F` [Compound 3.01, 2-Chloro-4-(2-(4-fluoro-3-hydroxyphenyl)benzo[d]oxazol-6-yl)phenol] fall in the same range of IC50: 100 to 1000 nM for the first, 100 to 1000 nM for the second.

First: Oc1ccc(-c2ccc3oc(-c4ccc(F)c(O)c4)nc3c2)cc1 [Compound 3.02, 2-Fluoro-5-(5-(4-hydroxyphenyl)benzo[d]oxazol-2-yl)phenol]
Second: Oc1cccc(-c2ccc3oc(-c4ccc(F)c(O)c4)nc3c2)c1 [Compound 3.03, 2-Fluoro-5-(5-(3-hydroxyphenyl)benzo[d]oxazol-2-yl)phenol]
The IC50 of the first is lower: 100 to 1000 nM for the first, 1000 to 30000 nM for the second.

`CS(=O)(=O)N1CCN(c2ccc3oc(-c4ccc(F)c(O)c4)nc3c2)CC1` [Compound 4, 2-Fluoro-5-(5-(4-(methylsulfonyl)piperazin-1-yl)benzo[d]oxazol-2-yl)phenol] and `CS(=O)(=O)N1CCN(c2ccc3oc(-c4cc(O)c(F)c(F)c4)nc3c2)CC1` [Compound 5.02, 2,3-Difluoro-5-(5-(4-(methylsulfonyl)piperazin-1-yl)benzo[d]oxazol-2-yl)phenol] fall in the same range of IC50: 100 to 1000 nM for the first, 100 to 1000 nM for the second.

`CS(=O)(=O)N1CCN(c2ccc3nc(-c4cc(O)cc(C(F)(F)F)c4)oc3c2)CC1` [Compound 4.01, 3-(6-(4-(Methylsulfonyl)piperazin-1-yl)benzo[d]oxazol-2-yl)-5-(trifluoromethyl)phenol] and `CS(=O)(=O)N1CCN(c2ccc3oc(-c4cc(O)cc(C(F)(F)F)c4)nc3c2)CC1` [Compound 4.02, 3-(5-(4-(Methylsulfonyl)piperazin-1-yl)benzo[d]oxazol-2-yl)-5-(trifluoromethyl)phenol] fall in the same range of IC50: 100 to 1000 nM for the first, 100 to 1000 nM for the second.

`CS(=O)(=O)N1CCN(c2cc3nc(-c4cc(O)c(F)c(F)c4)oc3cc2Cl)CC1` [Compound 5, 5-(6-Chloro-5-(4-(methylsulfonyl)piperazin-1-yl)benzo[d]oxazol-2-yl)-2,3-difluorophenol] and `CS(=O)(=O)C1CN(c2cc3nc(-c4cc(O)c(F)c(F)c4)oc3cc2Cl)C1` [Compound 5.01, 5-(6-Chloro-5-(3-(methylsulfonyl)azetidine-1-yl)benzo[d]oxazol-2-yl)-2,3-difluorophenol] fall in the same range of IC50: 100 to 1000 nM for the first, 100 to 1000 nM for the second.

`CS(=O)(=O)N1CCN(c2ccc3oc(-c4cc(O)c(F)c(C(F)(F)F)c4)nc3c2)CC1` [Compound 6, 2-Fluoro-5-(5-(4-(methylsulfonyl)piperazin-1-yl)benzo[d]oxazol-2-yl)-3-(trifluoromethyl)phenol] and `CS(=O)(=O)N1CCN(c2ccc3nc(-c4cc(O)c(F)c(C(F)(F)F)c4)oc3c2)CC1` [Compound 6.02, 2-Fluoro-5-(6-(4-(methylsulfonyl)piperazin-1-yl)benzo[d]oxazol-2-yl)-3-(trifluoromethyl)phenol] cannot be ordered by IC50: under 100 nM for the first, under 100 nM for the second.

`CS(=O)(=O)N1CCN(c2cc3oc(-c4cc(O)c(F)c(C(F)(F)F)c4)nc3cn2)CC1` [Compound 6.01, 2-Fluoro-5-(6-(4-(methylsulfonyl)piperazin-1-yl)oxazolo[4,5-c]pyridin-2-yl)-3-(trifluoromethyl)phenol] and `CS(=O)(=O)N1CCN(c2ccc3oc(-c4cc(C(F)(F)F)c(F)c(O)c4F)nc3c2)CC1` [Compound 7, 2,6-Difluoro-3-(5-(4-(methylsulfonyl)piperazin-1-yl)benzo[d]oxazol-2-yl)-5-(trifluoromethyl)phenol] fall in the same range of IC50: 100 to 1000 nM for the first, 100 to 1000 nM for the second.

`CS(=O)(=O)N1CCN(c2ccc3oc(-c4cc(C(F)(F)F)cc(O)n4)nc3c2)CC1` [Compound 7.01, 6-(5-(4-(Methylsulfonyl)piperazin-1-yl)benzo[d]oxazol-2-yl)-4-(trifluoromethyl)pyridin-2-ol] and `Cn1nc(-c2cc(C(F)(F)F)cc(O)c2F)c2ccc(N3CCN(S(C)(=O)=O)CC3)cc21` [Compound 9.02, 2-Fluoro-3-(1-methyl-6-(4-(methylsulfonyl)piperazin-1-yl)-1H-indazol-3-yl)-5-(trifluoromethyl)phenol] fall in the same range of IC50: 1000 to 30000 nM for the first, 1000 to 30000 nM for the second.

`Cn1nc(-c2cc(C(F)(F)F)c(F)c(O)c2F)c2cnc(N3CCOCC34CC4)cc21` [Compound 8, 2,6-Difluoro-3-(1-methyl-6-(7-oxa-4-azaspiro[2.5]octan-4-yl)-1H-pyrazolo[4,3-c]pyridin-3-yl)-5-trifluoromethyl phenol] and `Cn1nc(-c2cc(C(F)(F)F)c(F)c(O)c2F)c2ccc(N3CCOCC34CC4)nc21` [Compound 9.03, 2,6-Difluoro-3-(1-methyl-6-(7-oxa-4-azaspiro[2.5]octan-4-yl)-1H-pyrazolo[3,4-b]pyridin-3-yl)-5-(trifluoromethyl)phenol] cannot be ordered by IC50: under 100 nM for the first, under 100 nM for the second.

`CN(c1cc2c(cn1)c(-c1cc(C(F)(F)F)c(F)c(O)c1F)nn2C)C1CC1` [Compound 9, 3-(6-(Cyclopropyl(methyl)amino)-1-methyl-1H-pyrazolo[4,3-c]pyridin-3-yl)-2,6-difluoro-5-(trifluoromethyl)phenol] and `CN(c1cc2c(cn1)c(-c1cc(C(F)(F)F)c(F)c(O)c1F)nn2C)C1CCC1` [Compound 9.07, 3-(6-(Cyclobutyl(methyl)amino)-1-methyl-1H-pyrazolo[4,3-c]pyridin-3-yl)-2,6-difluoro-5-(trifluoromethyl)phenol] cannot be ordered by IC50: under 100 nM for the first, under 100 nM for the second.

`Cn1nc(-c2cc(C(F)(F)F)cc(O)c2F)c2cnc(N3CCN(S(C)(=O)=O)CC3)cc21` [Compound 9.01, 2-Fluoro-3-(1-methyl-6-(4-(methylsulfonyl)piperazin-1-yl)-1H-pyrazolo[4,3-c]pyridin-3-yl)-5-(trifluoromethyl)phenol] and `Cn1nc(-c2cc(C(F)(F)F)c(F)c(O)c2F)c2cnc(N3CC(C)(C#N)C3)cc21` [Compound 9.08, 1-(3-(2,4-Difluoro-3-hydroxy-5-(trifluoromethyl)phenyl)-1-methyl-1H-pyrazolo[4,3-c]pyridin-6-yl)-3-methylazetidine-3-carbonitrile] cannot be ordered by IC50: under 100 nM for the first, under 100 nM for the second.

`Cn1nc(-c2cc(C(F)(F)F)c(F)c(O)c2F)c2cnc(N3CC4(CCOCC4)C3)nc21` [Compound 9.04, 2,6-Difluoro-3-(1-methyl-6-(7-oxa-2-azaspiro[3.5]nonan-2-yl)-1H-pyrazolo[3,4-d]pyrimidin-3-yl)-5-(trifluoromethyl)phenol] and `Cn1nc(-c2cc(C(F)(F)F)c(F)c(O)c2F)c2cnc(N3CC(C)(C)C3)nc21` [Compound 9.06, 3-(6-(3,3-Dimethylazetidin-1-yl)-1-methyl-1H-pyrazolo[3,4-d]pyrimidin-3-yl)-2,6-difluoro-5-(trifluoromethyl)phenol] cannot be ordered by IC50: under 100 nM for the first, under 100 nM for the second.

`Cn1nc(-c2cc(C(F)(F)F)c(F)c(O)c2F)c2cnc(N3CCC3(C)C)nc21` [Compound 9.05, 3-(6-(2,2-Dimethylazetidin-1-yl)-1-methyl-1H-pyrazolo[3,4-d]pyrimidin-3-yl)-2,6-difluoro-5-(trifluoromethyl)phenol] and `Cn1nc(-c2cc(C(F)(F)F)c(F)c(O)c2F)c2cnc(N3CC(C)(C#N)C3)nc21` [Compound 9.09, 1-(3-(2,4-Difluoro-3-hydroxy-5-(trifluoromethyl)phenyl)-1-methyl-1H-pyrazolo[3,4-d]pyrimidin-6-yl)-3-methylazetidine-3-carbonitrile] fall in the same range of IC50: 100 to 1000 nM for the first, 100 to 1000 nM for the second.

Same assay, conditions: at 10 uM compound; read-out: HSD17β13 % inhibition at 10 uM

In order of falling inhibition at 10 µM:
1. O=C(NC12CC(C1)C2)c1ccc2oc(-c3cc(C(F)(F)F)cc(O)n3)nc2c1 [Compound 1.31, N-(Bicyclo[1.1.1]pentan-1-yl)-2-(6-hydroxy-4-(trifluoromethyl)pyridin-2-yl)benzo[d]oxazole-5-carboxamide]  50%
2. CS(=O)(=O)N1CCN(c2ccc3oc(-c4cc(C(F)(F)F)c(F)c(O)n4)nc3c2)CC1 [Compound 7.02, 3-Fluoro-6-(5-(4-(methylsulfonyl)piperazin-1-yl)benzo[d]oxazol-2-yl)-4-(trifluoromethyl)pyridin-2-ol]  40%

Same assay, conditions: at 30 uM compound; read-out: HSD17β13 % inhibition at 30 uM

`Cc1cc(-c2nc3cc(C(=O)NC4CCC4)ccc3o2)cc(O)c1F` [Compound 2.02, N-Cyclobutyl-2-(4-fluoro-3-hydroxy-5-methylphenyl)benzo[d]oxazole-5-carboxamide] showed an inhibition at 30 µM of 20%.
